In the supplement of paper PMC8671470:
± gives the standard deviation of the averaged measurements.

Assays:
Details in all cases: 72 h
MV4-11 [1] = system: MV4-11
Procedure, shortened: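 In 384-well plates holding acoustically pre-printed compounds at five tenfold doses from 1 to 10,000 nM, in duplicate, fifteen myeloid leukaemia cell lines were grown in RPMI 1640 for 72 h at 37 °C with 5% CO2. Luminescent ATP viability was scaled between vehicle and a positive control at 10 µM. The IC50 was then taken from log-logistic dose–response fits with four parameters.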

HL-60 [2] = assay: cell viability (% survival relative to DMSO control); higher = less cytotoxic
Procedure, shortened: (§1)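 In 384-well plates, the full library was rescreened in duplicate on HL-60 cells in RPMI 1640 with 10% FBS, at 1–10,000 nM in five tenfold concentrations, for 72 h at 37 °C, 5% CO2. Each run also held DMSO or 100 nM of one of three metabolic inhibitors. Viability was measured by CellTiter-Glo and normalised to DMSO wells and to wells with proteasome inhibitor, present at 10 μM. Any area under the curve comes from four-parameter log-logistic fitting with drc and PharmacoGx.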

BV-173 = assay: cell viability (% survival relative to DMSO control, bortezomib = 0%); higher = less cytotoxic
Procedure, shortened: (§2)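 Reported values are percent survival from duplicate wells, averaged. Fifteen myeloid leukaemia cell lines were treated in 384-well plates with compounds at 1, 10, 100, 1000 or 10000 nM for 72 h at 37 °C in 5% CO2. Signals from CellTiter-Glo luminescence were scaled with vehicle as 100% and a 10 µM positive control as 0%.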

HEL = assay: as above
Procedure, shortened: as §2

HL-60 [3] = assay: as above
Procedure, shortened: as §2

K-562 = assay: as above
Procedure, shortened: as §2

KCL-22 = assay: as above
Procedure, shortened: as §2

KG-1 = assay: as above
Procedure, shortened: as §2

KU-812 = assay: as above
Procedure, shortened: as §2

LAMA-84 = assay: as above
Procedure, shortened: as §2

ML-2 = assay: as above
Procedure, shortened: as §2

MOLM-13 = assay: as above
Procedure, shortened: as §2

MV4-11 [4] = assay: as above
Procedure, shortened: as §2

Mono-Mac-6 = assay: as above
Procedure, shortened: as §2

NOMO-1 = assay: as above
Procedure, shortened: as §2

SHI-1 = assay: as above
Procedure, shortened: as §2

THP-1 = assay: as above
Procedure, shortened: as §2

HL-60 [5] = assay: area under dose-response curve (viability, 1 nM-10 uM) (fraction (0-1)); higher = more sensitive
Procedure, shortened: as §1

Cn1cc(C[C@@H](N)C(=O)O)c2ccccc21 [Indoximod]
Details | IC50 (cell viability) [µM]
MV4-11 [1] | > 10

cell viability [%], HL-60 [2]
Details | 0.001 µM | 0.01 µM | 0.1 µM | 1 µM | 10 µM
co-treatment: AZD3965 100 nM | 89.7 ± 8 | 96.1 ± 6.9 | 104 ± 4.9 | 106 ± 7.9 | 101 ± 2.1
co-treatment: DMSO vehicle | 100 ± 5.2 | 98.7 ± 1.6 | 112 ± 11 | 110 ± 9.6 | 96.7 ± 1.3
co-treatment: GSK2194069 100 nM | 96.5 ± 4.6 | 88.55 ± 0.44 | 115 ± 26 | 113 ± 31 | 86.2 ± 27
co-treatment: pictilisib 100 nM | 110 ± 8.8 | 63.4 ± 34 | 120 ± 22 | 123 ± 29 | 93.9 ± 19

Details | area under dose-response curve, co-treatment: AZD3965 100 nM | area under dose-response curve, co-treatment: DMSO vehicle | area under dose-response curve, co-treatment: GSK2194069 100 nM | area under dose-response curve, co-treatment: pictilisib 100 nM | cell viability, 1 nM [%] | cell viability, 10 nM [%] | cell viability, 100 nM [%] | cell viability, 1000 nM [%] | cell viability, 10000 nM [%]
BV-173 | – | – | – | – | 134 | 95.3 | 90.6 | 84.7 | 100
HEL | – | – | – | – | 110 | 97.1 | 85.8 | 120 | 100
HL-60 [3] | – | – | – | – | 102 | 90.2 | 116 | 97.3 | 106
HL-60 [5] | < 0.0301 | < 0.0301 | < 0.0301 | < 0.0301 | – | – | – | – | –
K-562 | – | – | – | – | 103 | 108 | 79.8 | 87.5 | 89.9
KCL-22 | – | – | – | – | 109 | 86.8 | 82.5 | 106 | 101
KG-1 | – | – | – | – | 107 | 99 | 102 | 99.2 | 97.6
KU-812 | – | – | – | – | 93.8 | 101 | 90.9 | 105 | 95.6
LAMA-84 | – | – | – | – | 94.5 | 97.2 | 91.1 | 113 | 94.7
ML-2 | – | – | – | – | 97.8 | 97.2 | 100 | 106 | 92.9
MOLM-13 | – | – | – | – | 104 | 97.7 | 81.3 | 86.8 | 76.7
MV4-11 [4] | – | – | – | – | 93.3 | 88.2 | 103 | 85.5 | 94.9
Mono-Mac-6 | – | – | – | – | 104 | 102 | 92.9 | 97.7 | 91.8
NOMO-1 | – | – | – | – | 112 | 96.2 | 95.6 | 117 | 99
SHI-1 | – | – | – | – | 96 | 101 | 102 | 107 | 104
THP-1 | – | – | – | – | 99.3 | 96.4 | 102 | 94.8 | 98.4
